Measured values as given in patent US20090238808A1, “Process for the identification of novel enzyme interacting compounds” (priority 2005, published 2009).

Legend:
Assay in all cases: Kinobeads elution with test compound, mouse brain lysate, MS
Assay type in all cases: binding
Conditions in all cases: kinase released from kinobeads by specific elution
GSK3B = biological target: T1, GSK3B (Mus musculus, UniProt Q9WV60)
T1 construct: from tissue; host or cells: mouse brain
From the text: (§1) This example illustrates competitive elution of proteins bound to kinobeads with non-modified test compounds (see particularly the fourth aspect of the invention).
(§2) The kinobeads were contacted with mouse brain lysate under conditions that allow the binding of the proteins in the lysate to the ligands. The binding conditions were close to physiological by choosing suitable buffer conditions preserving the function of the proteins. After removing non-captured proteins through a gentle washing procedure the bound proteins were contacted with a test compound for protein elution.
(§3) Various test compounds (see section 2.7) were used to release bound proteins following these steps:
(§4) 1. Resuspend beads with bound proteins (section 2.4) in 1×DP buffer/0.2% NP-40 as 1:3 slurry (volume/volume). 2. Transfer 20 μl the 1:3 slurry into MoBiTech columns (equivalent to 5 μl of beads). 3. Place the column into an Eppendorf tube and centrifuge it for 15 seconds at 800 rpm at 4° C. Close columns with lower lid. 4. Add 10 μl elution buffer containing 1.0 mM of the test compound (concentration ranges of 0.1 to 1.0 mM are suitable). As a control use elution buffer containing 2% DMSO or 2% DMF dependent on the solvent used for dissolving the test compound. Close column with upper lid. 5. Incubate for 30 minutes at 4° C. in an Eppendorf incubator at 700 rpm. 6. […] To harvest the eluate centrifuge 2 minutes at 2.000 rpm in table top centrifuge at room temperature. The typical volume of the eluate is approximately 15 μl. 7. Add 5 μl 4× NuPAGE SDS Sample Buffer (Invitrogen, NP0007) containing 100 mM DTT (DTT has to be added just prior to use). 8. Incubate for 30 minutes at 50° C. 9. Add 1/10 volume of 200 mg/ml iodoacetamide, incubate for 30 min at room temperature, protect from light. This reaction leads to the alkylation of cysteines for mass spectrometry. 10. Before loading samples onto the gel, centrifuge samples for 5 minutes at 15.000 rpm in order to remove precipitates. 11. […] 2.6 Preparation of Stock Solutions used in this Protocol
(§5) Search criteria varied depending on which mass spectrometer was used for the analysis.

CaMK2g = CaMK2g (Mus musculus, UniProt Q923T9)
From the text: as §1, §2, §3, §4, §5

FYN = biological target: T2, FYN (Mus musculus, UniProt P39688)
T2 construct: […]; from tissue; host or cells: mouse brain
Experimental: (§6) This example illustrates competitive elution of proteins bound to kinobeads with non-modified test compounds (see particularly the fourth aspect of the invention). The kinobeads (as described in example 1) were contacted with mouse brains lysate, bound proteins were eluted with various test compounds and the released proteins were analysed by mass spectrometry.
as §2, §3
(§7) 1. Resuspend beads with bound proteins (section 2.4) in 1×DP buffer/0.2% NP-40 as 1:3 slurry (volume/volume). 2. Transfer 20 μl the 1:3 slurry into MoBiTech columns (equivalent to 5 μl of beads). 3. Place the column into an Eppendorf tube and centrifuge it for 15 seconds at 800 rpm at 4° C. Close columns with lower lid. 4. Add 10 μl elution buffer containing 1.0 mM of the test compound (concentration ranges of 0.1 to 1.0 mM are suitable). As a control use elution buffer containing 2% DMSO or 2% DMF dependent on the solvent used for dissolving the test compound. Close column with upper lid. 5. Incubate for 30 minutes at 4° C. in an Eppendorf incubator at 700 rpm. 6. Open column (first top, then bottom), put column back into siliconized tube (SafeSeal Microcentrifuge Tubes, cat. no 11270, Sorenson BioScience, Inc.). To harvest the eluate centrifuge 2 minutes at 2.000 rpm in table top centrifuge at room temperature. The typical volume of the eluate is approximately 15 μl. 7. Add 5 μl 4× NuPAGE SDS Sample Buffer (Invitrogen, NP0007) containing 100 mM DTT (DTT has to be added just prior to use). 8. Incubate for 30 minutes at 50° C. 9. Add 1/10 volume of 200 mg/ml iodoacetamide, incubate for 30 min at room temperature, protect from light. This reaction leads to the alkylation of cysteines for mass spectrometry. 10. Before loading samples onto the gel, centrifuge samples for 5 minutes at 15.000 rpm in order to remove precipitates. 11. For protein separation apply 10 μl sample to NuPAGE 4-12% Bis-Tris gel (Invitrogen, NPO335). 2.6 Preparation of Stock Solutions used in this Protocol
as §5

YESps = system: YESps
Experimental: as §6, §2, §3, §7, §5

FER = FER (Mus musculus, UniProt P70451)
Experimental: as §6, §2, §3, §7, §5

RSK1 (Mus musculus) = system: T3, RSK1 (Mus musculus)
T3 construct: from tissue; host or cells: mouse brain
Experimental: as §6, §2, §3, §7, §5

FAK = FAK (Mus musculus, UniProt P34152)
Experimental: as §6, §2, §3, §7, §5

Sequence of FAK (P34152 whole entry): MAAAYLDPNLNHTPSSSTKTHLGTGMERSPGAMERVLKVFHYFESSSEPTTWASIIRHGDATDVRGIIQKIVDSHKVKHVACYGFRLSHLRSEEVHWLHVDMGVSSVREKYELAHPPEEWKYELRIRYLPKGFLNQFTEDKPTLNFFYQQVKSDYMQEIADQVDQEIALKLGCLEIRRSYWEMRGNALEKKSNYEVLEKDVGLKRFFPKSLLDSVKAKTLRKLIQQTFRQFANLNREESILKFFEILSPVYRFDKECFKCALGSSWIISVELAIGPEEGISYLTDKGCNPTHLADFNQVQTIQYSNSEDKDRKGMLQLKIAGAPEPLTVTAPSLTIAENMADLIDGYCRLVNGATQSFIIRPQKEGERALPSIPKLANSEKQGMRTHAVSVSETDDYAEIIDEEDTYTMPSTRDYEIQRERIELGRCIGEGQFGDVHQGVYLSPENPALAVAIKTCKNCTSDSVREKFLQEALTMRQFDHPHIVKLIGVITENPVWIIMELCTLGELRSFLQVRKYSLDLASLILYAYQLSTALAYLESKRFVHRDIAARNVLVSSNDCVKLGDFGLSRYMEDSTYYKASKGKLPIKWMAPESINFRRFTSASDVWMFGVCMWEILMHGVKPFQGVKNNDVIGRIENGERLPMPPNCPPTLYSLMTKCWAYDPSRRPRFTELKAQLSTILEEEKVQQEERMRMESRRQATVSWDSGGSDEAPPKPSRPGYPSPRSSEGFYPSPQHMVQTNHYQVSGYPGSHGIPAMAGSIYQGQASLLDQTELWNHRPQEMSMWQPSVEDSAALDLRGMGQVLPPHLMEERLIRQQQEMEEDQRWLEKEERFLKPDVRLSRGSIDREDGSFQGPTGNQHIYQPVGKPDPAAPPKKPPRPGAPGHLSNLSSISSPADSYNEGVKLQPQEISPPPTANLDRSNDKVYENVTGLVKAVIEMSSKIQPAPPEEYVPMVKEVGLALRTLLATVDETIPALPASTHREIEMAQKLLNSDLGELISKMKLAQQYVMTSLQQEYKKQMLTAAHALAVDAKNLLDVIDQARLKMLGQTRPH
Sequence of CaMK2g (Q923T9 whole entry): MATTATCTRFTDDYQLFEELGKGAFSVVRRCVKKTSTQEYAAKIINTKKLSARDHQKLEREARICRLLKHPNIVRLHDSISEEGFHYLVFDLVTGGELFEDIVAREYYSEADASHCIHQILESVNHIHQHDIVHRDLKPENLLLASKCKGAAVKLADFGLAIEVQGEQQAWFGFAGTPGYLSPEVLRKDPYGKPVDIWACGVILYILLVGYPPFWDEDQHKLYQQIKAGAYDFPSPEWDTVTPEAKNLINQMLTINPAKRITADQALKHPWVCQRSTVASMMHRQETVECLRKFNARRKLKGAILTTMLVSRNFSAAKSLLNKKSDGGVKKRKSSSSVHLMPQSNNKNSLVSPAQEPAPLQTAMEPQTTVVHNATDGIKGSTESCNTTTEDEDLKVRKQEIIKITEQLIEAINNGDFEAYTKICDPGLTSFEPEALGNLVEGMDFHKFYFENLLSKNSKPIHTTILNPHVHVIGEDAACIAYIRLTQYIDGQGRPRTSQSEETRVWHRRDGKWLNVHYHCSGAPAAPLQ
Sequence of FER (P70451 whole entry): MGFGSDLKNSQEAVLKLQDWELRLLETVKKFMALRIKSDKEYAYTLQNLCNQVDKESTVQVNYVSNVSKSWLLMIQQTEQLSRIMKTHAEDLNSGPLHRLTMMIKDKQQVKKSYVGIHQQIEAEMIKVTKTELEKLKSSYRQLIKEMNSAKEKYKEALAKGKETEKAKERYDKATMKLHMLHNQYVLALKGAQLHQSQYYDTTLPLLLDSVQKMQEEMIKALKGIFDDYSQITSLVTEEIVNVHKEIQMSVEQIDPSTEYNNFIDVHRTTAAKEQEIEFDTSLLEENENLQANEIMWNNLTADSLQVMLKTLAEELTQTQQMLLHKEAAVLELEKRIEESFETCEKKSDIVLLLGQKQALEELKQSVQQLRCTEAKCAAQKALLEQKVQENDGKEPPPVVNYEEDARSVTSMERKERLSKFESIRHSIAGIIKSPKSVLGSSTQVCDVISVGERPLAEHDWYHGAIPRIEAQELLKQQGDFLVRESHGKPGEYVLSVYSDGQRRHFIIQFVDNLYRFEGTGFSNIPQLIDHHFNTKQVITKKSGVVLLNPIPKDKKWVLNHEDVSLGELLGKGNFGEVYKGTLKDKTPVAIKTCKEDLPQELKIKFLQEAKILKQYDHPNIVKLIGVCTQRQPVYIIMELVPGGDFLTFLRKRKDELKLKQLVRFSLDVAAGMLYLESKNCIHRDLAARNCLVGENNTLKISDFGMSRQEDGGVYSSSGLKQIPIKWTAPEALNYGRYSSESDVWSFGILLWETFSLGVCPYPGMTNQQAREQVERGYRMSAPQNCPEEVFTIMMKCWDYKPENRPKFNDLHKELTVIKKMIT
T3 sequence (Q9WUT3 whole entry): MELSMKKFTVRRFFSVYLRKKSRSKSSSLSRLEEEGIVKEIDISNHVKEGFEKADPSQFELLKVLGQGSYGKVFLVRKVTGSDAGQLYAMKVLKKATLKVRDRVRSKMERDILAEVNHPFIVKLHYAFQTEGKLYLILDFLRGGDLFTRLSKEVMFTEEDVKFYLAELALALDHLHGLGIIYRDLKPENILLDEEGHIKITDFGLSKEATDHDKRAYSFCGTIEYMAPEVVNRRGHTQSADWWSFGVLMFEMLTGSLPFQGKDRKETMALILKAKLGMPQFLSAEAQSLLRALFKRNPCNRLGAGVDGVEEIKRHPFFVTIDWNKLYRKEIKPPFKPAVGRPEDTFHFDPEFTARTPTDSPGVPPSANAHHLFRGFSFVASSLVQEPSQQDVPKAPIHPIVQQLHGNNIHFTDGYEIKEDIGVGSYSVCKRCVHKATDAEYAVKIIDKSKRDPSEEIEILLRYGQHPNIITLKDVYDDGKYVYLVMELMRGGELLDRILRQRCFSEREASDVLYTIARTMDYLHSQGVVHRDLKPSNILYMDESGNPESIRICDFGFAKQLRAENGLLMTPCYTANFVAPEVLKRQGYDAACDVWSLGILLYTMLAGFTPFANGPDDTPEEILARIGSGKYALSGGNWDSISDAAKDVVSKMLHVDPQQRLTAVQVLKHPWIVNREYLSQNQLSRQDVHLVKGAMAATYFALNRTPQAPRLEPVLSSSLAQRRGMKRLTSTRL
T2 sequence (P39688 whole entry): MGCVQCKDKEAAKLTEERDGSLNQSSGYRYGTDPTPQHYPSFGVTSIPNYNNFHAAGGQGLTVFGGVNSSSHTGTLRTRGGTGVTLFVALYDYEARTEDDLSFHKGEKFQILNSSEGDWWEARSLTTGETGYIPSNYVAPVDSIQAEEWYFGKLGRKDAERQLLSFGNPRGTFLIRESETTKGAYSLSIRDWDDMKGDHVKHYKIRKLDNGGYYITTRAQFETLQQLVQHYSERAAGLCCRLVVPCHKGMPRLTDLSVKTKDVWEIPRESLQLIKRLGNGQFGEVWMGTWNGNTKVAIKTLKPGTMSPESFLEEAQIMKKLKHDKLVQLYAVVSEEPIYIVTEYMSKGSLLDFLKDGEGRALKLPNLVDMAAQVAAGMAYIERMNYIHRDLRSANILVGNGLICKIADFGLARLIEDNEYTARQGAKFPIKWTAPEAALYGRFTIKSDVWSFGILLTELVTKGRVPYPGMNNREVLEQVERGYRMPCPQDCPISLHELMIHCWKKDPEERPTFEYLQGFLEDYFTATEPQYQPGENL
T1 sequence (Q9WV60 whole entry): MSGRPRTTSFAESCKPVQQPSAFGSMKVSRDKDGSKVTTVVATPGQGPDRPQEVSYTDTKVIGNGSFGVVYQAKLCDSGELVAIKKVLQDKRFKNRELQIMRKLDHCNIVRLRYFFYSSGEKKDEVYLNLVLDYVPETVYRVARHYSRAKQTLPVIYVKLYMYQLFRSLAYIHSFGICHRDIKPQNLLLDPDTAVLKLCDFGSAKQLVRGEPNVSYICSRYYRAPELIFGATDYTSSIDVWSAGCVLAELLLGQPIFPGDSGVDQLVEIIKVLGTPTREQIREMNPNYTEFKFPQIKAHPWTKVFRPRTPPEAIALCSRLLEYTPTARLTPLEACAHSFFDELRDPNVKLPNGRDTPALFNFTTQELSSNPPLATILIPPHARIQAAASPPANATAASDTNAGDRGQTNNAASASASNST

| Structure (SMILES) | number of identified peptides, GSK3B (GSK3B) | number of identified peptides, CaMK2g (CaMK2g) | mass spectrometry score, FYN (FYN) | number of identified peptides, FYN (FYN) | mass spectrometry score, YESps (YESps) | number of identified peptides, YESps (YESps) | mass spectrometry score, FER (FER) | number of identified peptides, FER (FER) | mass spectrometry score, RSK1 (RSK1 (Mus musculus)) | number of identified peptides, RSK1 (RSK1 (Mus musculus)) | mass spectrometry score, GSK3B (GSK3B) | mass spectrometry score, FAK (FAK) | number of identified peptides, FAK (FAK) | mass spectrometry score, CaMK2g (CaMK2g) |
| --- | --- | --- | --- | --- | --- | --- | --- | --- | --- | --- | --- | --- | --- | --- |
| CNC1CC2OC(C)(C1OC)n1c3ccccc3c3c4c(c5c6ccccc6n2c5c31)C(=O)NC4 (stereo not shown) [CZC9280] | 59 | 25 | 314 | 6 | 480 | 12 | 818 | 21 | 1634 | 47 |  |  |  |  |
| Cn1c(=O)c(-c2c(Cl)cccc2Cl)cc2cnc(Nc3ccc(CN)cc3)cc21 [CZC7324] | 19 |  | 279 | 6 |  |  | 388 | 11 | 626 | 19 | 789 | 322 | 10 |  |
| CC(C)[C@H](CO)Nc1nc(Nc2ccc(C(=O)O)c(Cl)c2)c2ncn(C(C)C)c2n1 [Purvalanol B, reference compound] | 30 |  | 268 | 6 | 304 | 7 | 322 | 8 | 1177 | 32 | 1037 | 269 | 6 |  |
| NCc1ccc(Nc2ncc(F)c(Nc3ccccc3)n2)cc1 [CZC00008004] | 26 | 27 |  |  | 110 | 3 | 100 | 2 | 312 | 9 | 881 | 257 | 8 | 527 |
| CCCCCCCCCCCCOS(=O)(=O)[O-].[Na+] [SDS] | 72 | 42 | 407 | 17 | 236 | 13 | 275 | 11 | 825 | 45 | 763 | 160 | 6 | 379 |
